Measurements reported in ChEMBL document CHEMBL3400046, “Discovery and evaluation of a novel monocyclic series of CXCR2 antagonists” (Bioorg Med Chem Lett, 2015).

Key:
[1] = Dissociation constant, pKa of the compound; assay type: physicochemical
[2] = physchem; conditions: octanol/water
[3] = in vitro; conditions: human, hepatocytes
[4] = in vitro; conditions: human, Caco-2
[5] = Bioavailability in iv dosed rat; assay type: ADME, organism-based; conditions: in vivo
[6] = Fraction of the dose absorbed in iv dosed rat; assay type: ADME, organism-based; conditions: in vivo, read-out: Fabs
[7] = tested on: Rattus norvegicus; assay: Dose normalized AUC in po dosed rat; assay type: ADME, organism-based; conditions: in vivo
[8] = Volume of distribution at steady state in iv dosed rat; assay type: ADME, organism-based; conditions: in vivo, read-out: Vdss
[9] = Half life in iv dosed rat; assay type: ADME, organism-based; conditions: in vivo
[10] = in vivo; conditions: rat, iv
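Throughout, for logD: distribution coefficient determined with the shake-flask method.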

Row | pKa [1] | logD [2] | hepatocyte CLint [3] [µL/min/1e6 cells] | Compound | further results
1 | 6.9 | 1.9 |  | C[C@H](CO)Nc1cc(NS(C)(=O)=O)nc(SCc2ccccc2)n1 | 
2 |  | 3.1 | 8 | C[C@H](CO)Nc1cc(NS(=O)(=O)N2CCOCC2)nc(SCc2cccc(Cl)c2F)n1 | Papp A→B [4]: 5.4 ×10⁻⁶ cm/s
3 |  | 1.5 |  | C[C@H](CO)Nc1cc(NS(=O)(=O)N2CCNCC2)nc(SCc2cccc(Cl)c2F)n1 | Papp A→B [4]: 0.1 ×10⁻⁶ cm/s
4 |  |  | 4.6 | C[C@H](CO)Nc1cc(NS(=O)(=O)N2CCOCC2)nc(SCc2cccc(F)c2F)n1 | bioavailability [5]: 31%; Fa [6]: 48%; Vd [8]: 1.1 L/kg; half-life [9]: 1 h; AUC/dose [7]: 1.6 µM·h; clearance [10]: 25 mL/min/kg
5 |  | 3.4 | 12 | C[C@H](CO)Nc1cc(NS(=O)(=O)N2CCCC2)nc(SCc2cccc(F)c2F)n1 | Papp A→B [4]: 7.5 ×10⁻⁶ cm/s
6 |  | 3.9 | 30 | C[C@H](CO)Nc1cc(NS(=O)(=O)N2CCCCC2)nc(SCc2cccc(F)c2F)n1 | 
7 |  | 2.6 | 3.1 | C[C@H](CO)Nc1cc(NS(=O)(=O)N2CCC2)nc(SCc2cccc(F)c2F)n1 | bioavailability [5]: 44%; Fa [6]: 50%; Vd [8]: 1.4 L/kg; half-life [9]: 3.2 h; AUC/dose [7]: 5.9 µM·h; clearance [10]: 8 mL/min/kg; Papp A→B [4]: 10.1 ×10⁻⁶ cm/s
8 |  | 1.6 |  | C[C@H](CO)Nc1cc(NS(=O)(=O)c2cn(C)cn2)nc(SCc2cccc(F)c2F)n1 | 
9 |  | 2 |  | C[C@H](CO)Nc1cc(NS(=O)(=O)c2cn(C)cn2)nc(SCc2cccc(Cl)c2F)n1 | Papp A→B [4]: 1.4 ×10⁻⁶ cm/s
10 |  | 3.4 |  | C[C@H](CO)Nc1cc(NS(=O)(=O)N(C)C)nc(SCc2cccc(Cl)c2F)n1 | Papp A→B [4]: 6.4 ×10⁻⁶ cm/s
11 |  | 3.2 | 2.4 | C[C@H](CO)Nc1cc(NS(=O)(=O)N2CCC2)nc(SCc2cccc(Cl)c2F)n1 | 

The remaining lines, values behind:

Row | Compound | pKa [1] | logD [2] | hepatocyte CLint [3] [µL/min/1e6 cells] | further results
12 | C[C@H](CO)Nc1cc(NS(=O)(=O)c2ccccc2)nc(SCc2ccccc2)n1 | 6.6 | 2.5 |  | 
13 | C[C@H](CO)Nc1cc(NS(=O)(=O)N(C)C)nc(SCc2ccccc2)n1 | 7.3 | 2.6 |  | 
14 | C[C@H](CO)Nc1nc(SCc2cccc(F)c2F)nc2nc(N)sc12 |  |  |  | bioavailability [5]: 9%; Fa [6]: 12%; AUC/dose [7]: 0.7 µM·h
15 | C[C@H](CO)Nc1nc(SCc2cccc(F)c2F)nc2[nH]c(=O)sc12 |  |  | 15 | bioavailability [5]: 22%; Fa [6]: 24%; Vd [8]: 0.3 L/kg; half-life [9]: 1.1 h; AUC [7]: 2.1 µM·h; clearance [10]: 6 mL/min/kg
16 | C[C@H](CO)Nc1cc(C(=O)O)nc(SCc2ccccc2)n1 | 5.5 | -0.7 |  | 
17 | C[C@H](CO)Nc1cc(NS(=O)(=O)C(F)(F)F)nc(SCc2ccccc2)n1 | 5.8 | 2.2 |  | 
18 | C[C@H](CO)Nc1cc(NS(=O)(=O)c2ccc(C#N)cc2)nc(SCc2ccccc2)n1 | 6.1 | 2.6 |  | 
19 | C[C@H](CO)Nc1cc(NS(=O)(=O)c2ccc(Cl)cc2)nc(SCc2ccccc2)n1 | 6.5 | 3.5 |  | 
20 | C[C@H](CO)Nc1cc(NS(=O)(=O)Cc2ccccc2)nc(SCc2ccccc2)n1 |  | 2.7 |  | 
21 | C[C@H](CO)Nc1cc(C(=O)NS(C)(=O)=O)nc(SCc2ccccc2)n1 | 4.9 | -0.7 |  | 
